Experimental data published in patent publication US10233422B2, “Pluripotent cell lines and methods of use thereof” (Parkinson's Institute, priority 2008, dated 2019).

System: paraquat-treated mouse brain
Assay: Ex vivo screening of anti-aggregation compounds: Thioflavin S deposits in paraquat-treated mouse brain
Settings: 250 uM, FIG. 33D-E

Oc1ccccc1O [Catechol, catechol]
Thioflavin S deposits (which label aggregate protein): Diminished Thioflavin S deposits
